Laboratory results reported in PMC11971462, “Generation and validation of a novel multitarget small molecule in glioblastoma” (Cell Death & Disease, 2025).
Where two headings read alike, the source gives them in different places.

Test system: GNS166 cells

For C#CCN(Cc1cc2cc(OCCCN3CCCCC3)ccc2n1S(=O)(=O)c1ccccc1)C(=O)CCCCCCC(=O)NO [DDI], the “PCBP3 log2FoldChange” value was 5.457, the “PCDH15 log2FoldChange” value was 3.424 and the “PCDH19 log2FoldChange” value was 2.11. For the same compound, the “PCDHA13 log2FoldChange” value was 3.483, the “PCOLCE2 log2FoldChange” value was 2.03 and the “PCP4L1 log2FoldChange” value was 4.897. The “PCSK1 log2FoldChange” value was 3.118, the “PDE2A log2FoldChange” value was 2.038 and the “PDE3A log2FoldChange” value was 2.332. For the same compound, the “PDE4C log2FoldChange” value was 2.296, the “PDK4 log2FoldChange” value was 2.588 and the “PDX1 log2FoldChange” value was 3.554. The “PLA2G4A log2FoldChange” value was 2.126, the “PLCXD2 log2FoldChange” value was 2.533 and the “PLEK2 log2FoldChange” value was 2.459. The “PLEKHA6 log2FoldChange” value was 2.086, the “PLP1 log2FoldChange” value was 2.506 and the “PPM1N log2FoldChange” value was 2.335. The “PPP1R1B log2FoldChange” value was 4.39, the “PPP1R16B log2FoldChange” value was 3.376 and the “PPP4R4 log2FoldChange” value was 3.111. For the same compound, the “PRR29 log2FoldChange” value was 3.599, the “PRRX2 log2FoldChange” value was 2.314 and the “PRSS3 log2FoldChange” value was 3.932. For the same compound, the “PSD2 log2FoldChange” value was 3.562, the “PSG1 log2FoldChange” value was 5.24 and the “PSG4 log2FoldChange” value was 4.564. The “PSG5 log2FoldChange” value was 4.838, the “PSG9 log2FoldChange” value was 3.658 and the “PTGS1 log2FoldChange” value was 4.0843. For the same compound, the “PTPN5 log2FoldChange” value was 4.236, the “PTPRO log2FoldChange” value was 3.032 and the “PTPRQ log2FoldChange” value was 3.237. For the same compound, the “QPRT log2FoldChange” value was 2.003, the “RAB39A log2FoldChange” value was 2.508 and the “RADX log2FoldChange” value was 2.3792. For the same compound, the “RAET1G log2FoldChange” value was 2.196, the “RAP1GAP log2FoldChange” value was 2.521 and the “RARB log2FoldChange” value was 2.002. For the same compound, the “RASD2 log2FoldChange” value was 3.718, the “RASIP1 log2FoldChange” value was 2.128 and the “RDH12 log2FoldChange” value was 3.657. The “REM1 log2FoldChange” value was 2.662, the “RFPL4A log2FoldChange” value was 5.081 and the “RFTN2 log2FoldChange” value was 4.233. The “RGS9 log2FoldChange” value was 5.175, the “RIMBP2 log2FoldChange” value was 6.452 and the “RIMS4 log2FoldChange” value was 5.004. The “RNF165 log2FoldChange” value was 3.79, the “RUNDC3A log2FoldChange” value was 4.619 and the “S100B log2FoldChange” value was 3.045. For the same compound, the “SAMD11 log2FoldChange” value was 4.391, the “SCEL log2FoldChange” value was 2.003 and the “SCIN log2FoldChange” value was 3.412. The “SCN3A log2FoldChange” value was 2.697, the “SCN4B log2FoldChange” value was 2.757 and the “SCN5A log2FoldChange” value was 2.371. The “SCN9A log2FoldChange” value was 2.594, the “SCUBE1 log2FoldChange” value was 7.641 and the “SEMA3F log2FoldChange” value was 2.777. The “SEMA5A log2FoldChange” value was 2.383, the “SERPING1 log2FoldChange” value was 4.327 and the “SERPINI1 log2FoldChange” value was 3.966. For the same compound, the “SERTM1 log2FoldChange” value was 2.165, the “SGIP1 log2FoldChange” value was 2.3607 and the “SH2D3C log2FoldChange” value was 5.237. The “SHANK1 log2FoldChange” value was 6.717, the “SHF log2FoldChange” value was 2.222 and the “SHISA7 log2FoldChange” value was 4.7. The “SLC4A5 log2FoldChange” value was 2.594, the “SLC6A17 log2FoldChange” value was 2.657 and the “SLC7A2 log2FoldChange” value was 3.19. For the same compound, the “SLC7A10 log2FoldChange” value was 6.012, the “SLC8A2 log2FoldChange” value was 4.387 and the “SLC9A9 log2FoldChange” value was 2.124. The “SLC16A12 log2FoldChange” value was 2.212, the “SLC22A31 log2FoldChange” value was 5.211 and the “SLC25A27 log2FoldChange” value was 5.956. For the same compound, the “SLC44A3 log2FoldChange” value was 2.701, the “SLC45A1 log2FoldChange” value was 2.018 and the “SLIT2 log2FoldChange” value was 2.219. The “SLITRK3 log2FoldChange” value was 2.145, the “SMPDL3B log2FoldChange” value was 3.134 and the “SNCB log2FoldChange” value was 4.848. For the same compound, the “SNX22 log2FoldChange” value was 2.0694, the “SNX32 log2FoldChange” value was 2.323 and the “SOBP log2FoldChange” value was 2.326. For the same compound, the “SPANXC log2FoldChange” value was 2.711, the “SPINK2 log2FoldChange” value was 3.038 and the “SPNS2 log2FoldChange” value was 3.326. The “SSTR2 log2FoldChange” value was 2.236, the “ST3GAL5 log2FoldChange” value was 2.386 and the “ST6GALNAC3 log2FoldChange” value was 2.853. The “STAT4 log2FoldChange” value was 3.605, the “STC1 log2FoldChange” value was 3.854 and the “STMN3 log2FoldChange” value was 2.874. For the same compound, the “STUM log2FoldChange” value was 6.45, the “STX1B log2FoldChange” value was 2.758 and the “STXBP5L log2FoldChange” value was 2.17. For the same compound, the “SYNPO2 log2FoldChange” value was 2.428, the “SYP log2FoldChange” value was 4.307 and the “SYT2 log2FoldChange” value was 5.115. The “SYT5 log2FoldChange” value was 6.667, the “SYT13 log2FoldChange” value was 2.882 and the “SYTL3 log2FoldChange” value was 2.536. For the same compound, the “TAGLN3 log2FoldChange” value was 3.305, the “TBC1D8B log2FoldChange” value was 2.1255 and the “TCEAL5 log2FoldChange” value was 4.062. For the same compound, the “TCIM log2FoldChange” value was 3.258, the “TEC log2FoldChange” value was 4.937 and the “TEKT3 log2FoldChange” value was 2.698. For the same compound, the “TESC log2FoldChange” value was 5.269, the “TEX19 log2FoldChange” value was 3.325 and the “THSD7B log2FoldChange” value was 3.117. The “TJP3 log2FoldChange” value was 5.915, the “TLCD3B log2FoldChange” value was 2.485 and the “TLR9 log2FoldChange” value was 2.809. The “TLX2 log2FoldChange” value was 2.462, the “TMEM47 log2FoldChange” value was 2.003 and the “TMEM74B log2FoldChange” value was 3.647. The “TMEM74 log2FoldChange” value was 4.084, the “TMEM92 log2FoldChange” value was 3.463 and the “TMEM139 log2FoldChange” value was 3.161. For the same compound, the “TMEM145 log2FoldChange” value was 3.464, the “TMEM151B log2FoldChange” value was 3.192 and the “TMEM156 log2FoldChange” value was 3.7131. The “TMOD1 log2FoldChange” value was 2.144, the “TNFSF18 log2FoldChange” value was 2.976 and the “TNNI3 log2FoldChange” value was 7.061. The “TRPC4 log2FoldChange” value was 3.104, the “TTYH1 log2FoldChange” value was 4.78 and the “TUBA3C log2FoldChange” value was 6.251. The “TUSC3 log2FoldChange” value was 3.3304, the “UNC5B log2FoldChange” value was 3.5878 and the “USH1G log2FoldChange” value was 7.012. The “VAV3 log2FoldChange” value was 2.016, the “VGLL2 log2FoldChange” value was 2.35 and the “VTCN1 log2FoldChange” value was 4.133. The “VWA1 log2FoldChange” value was 2.457, the “WNT2B log2FoldChange” value was 2.031 and the “WNT10B log2FoldChange” value was 3.628. The “WSCD1 log2FoldChange” value was 2.865, the “XYLT1 log2FoldChange” value was 5.474 and the “YPEL4 log2FoldChange” value was 2.644. For the same compound, the “ZCCHC12 log2FoldChange” value was 2.836, the “ZDHHC11B log2FoldChange” value was 2.194 and the “ZDHHC22 log2FoldChange” value was 3.089. For the same compound, the “ZFP92 log2FoldChange” value was 2.85, the “ZMYND10 log2FoldChange” value was 2.335 and the “ZNF208 log2FoldChange” value was 3.37. The Direction (gene ALOX15B) was “Up”, the Direction (gene AMBN) was “Up” and the Direction (gene APELA) was “Up”. For the same compound, the Direction (gene ATP2B3) was “Up”, the Direction (gene B3GALT5) was “Up” and the Direction (gene BCL11B) was “Up”. The Direction (gene BRS3) was “Up”, the Direction (gene CA4) was “Up” and the Direction (gene CA7) was “Up”. The Direction (gene CAPNS2) was “Up”, the Direction (gene CCN5) was “Up” and the Direction (gene CD1D) was “Up”. For the same compound, the Direction (gene CDC20B) was “Up”, the Direction (gene CELF4) was “Up” and the Direction (gene CES1) was “Up”. For the same compound, the Direction (gene CFAP52) was “Up”, the Direction (gene CHRNA3) was “Up” and the Direction (gene CRB1) was “Up”. For the same compound, the Direction (gene CSAG1) was “Up”, the Direction (gene CSDC2) was “Up” and the Direction (gene CUX2) was “Up”. For the same compound, the Direction (gene CXorf51A) was “Up”, the Direction (gene DES) was “Up” and the Direction (gene DGKK) was “Up”. For the same compound, the Direction (gene EBF2) was “Up”, the Direction (gene EREG) was “Up” and the Direction (gene FAM9C) was “Up”. The Direction (gene FAM166A) was “Up”, the Direction (gene FER1L5) was “Up” and the Direction (gene FGD3) was “Up”. For the same compound, the Direction (gene FRG2) was “Up”, the Direction (gene FRMD7) was “Up” and the Direction (gene GAS7) was “Up”. For the same compound, the Direction (gene GMNC) was “Up”, the Direction (gene GOLGA8F) was “Up” and the Direction (gene GREM2) was “Up”. The Direction (gene GUCY2F) was “Up”, the Direction (gene HOXC13) was “Up” and the Direction (gene IBSP) was “Up”. For the same compound, the Direction (gene IRAG1) was “Up”, the Direction (gene IRF6) was “Up” and the Direction (gene KANK3) was “Up”. The Direction (gene KCNA1) was “Up”, the Direction (gene KCNH6) was “Up” and the Direction (gene KCNK5) was “Up”. For the same compound, the Direction (gene KCNK15) was “Up”, the Direction (gene KCNN2) was “Up” and the Direction (gene KCNQ1) was “Up”. For the same compound, the Direction (gene LHFPL1) was “Up”, the Direction (gene LHX5) was “Up” and the Direction (gene LOC102723623) was “Up”. The Direction (gene LRRC15) was “Up”, the Direction (gene MAGEA2) was “Up” and the Direction (gene MAGEA2B) was “Up”. The Direction (gene MAGEA6) was “Up”, the Direction (gene MAPK15) was “Up” and the Direction (gene ME1) was “Up”. The Direction (gene MEIOSIN) was “Up”, the Direction (gene MMEL1) was “Up” and the Direction (gene MMP12) was “Up”. The Direction (gene MYL2) was “Up”, the Direction (gene NOS3) was “Up” and the Direction (gene NTRK1) was “Up”. The Direction (gene PAGE4) was “Up”, the Direction (gene PAX2) was “Up” and the Direction (gene PCDHA1) was “Up”. For the same compound, the Direction (gene PITX3) was “Up”, the Direction (gene PLAC1) was “Up” and the Direction (gene PLK5) was “Up”. The Direction (gene PLXDC1) was “Up”, the Direction (gene PNLIPRP3) was “Up” and the Direction (gene POU3F4) was “Up”. The Direction (gene PSG6) was “Up”, the Direction (gene PTPRN) was “Up” and the Direction (gene RPRML) was “Up”. The Direction (gene RSPO1) was “Up”, the Direction (gene SCN4A) was “Up” and the Direction (gene SCRT1) was “Up”. The Direction (gene SH2D3A) was “Up”, the Direction (gene SHH) was “Up” and the Direction (gene SIDT1) was “Up”. For the same compound, the Direction (gene SLC4A9) was “Up”, the Direction (gene SLC11A1) was “Up” and the Direction (gene SLC18A1) was “Up”. For the same compound, the Direction (gene SLC19A3) was “Up”, the Direction (gene SLC35F3) was “Up” and the Direction (gene SLC36A2) was “Up”. The Direction (gene STMN4) was “Up”, the Direction (gene STRC) was “Up” and the Direction (gene SYT1) was “Up”. The Direction (gene TAC3) was “Up”, the Direction (gene TMEM196) was “Up” and the Direction (gene TNIP3) was “Up”. For the same compound, the Direction (gene TSPAN18) was “Up”, the Direction (gene TTC9B) was “Up” and the Direction (gene UGT3A1) was “Up”. For the same compound, the Direction (gene UNC5A) was “Up”, the Direction (gene VWA3B) was “Up” and the Direction (gene ZBBX) was “Up”. The Direction (gene ZNF479) was “Up”.
